Assay results as given in patent US11691950B2, “Isoquinoline-steroid conjugates and uses thereof” (priority 2018, dated 2023).
Structures can show the parent of a compound that is named as a salt.

Columns and labels:
TOX = TOX assay; assay type: cell-based; settings: HCl salt
Procedure: Inhibition of various kinases was assayed.

TNFα = TNFα secretion assay (LPS-treated RAW264.7 macrophages, ELISA); assay type: cell-based, murine; settings: RAW264.7 cells, 4 hrs
Procedure: The TNFα assay quantifies secreted TNFα from RAW264.7 immortalized murine macrophages as an indicator of inflammation. The cells were concurrently treated with LPS (as an inducer of inflammation) and a titration of test molecules or control compounds for 4 hrs. After the incubation period, the media was harvested and assayed via an ELISA assay. ODs of experimental samples are fit to those of a standard curve to extrapolate the TNFα concentration. IC50 values were calculated by fitting a curve to experimental values with the controls as the top and bottom limits of the curve. Selected compounds provided herein were subjected to this assay.

myeloperoxidase activity = assay: Myeloperoxidase (MPO) activity after intravitreal LPS in mice; assay type: in vivo, C57B16 male mice; settings: dosed at 0 and 6 hours, collected 24 hours
Procedure: Adult C57B16 male mice were injected with 2 ng of lipopolysaccharide (LPS) intravitreally. The mice were then dosed with vehicle, compounds or control treatments (0.07% w/w, 0.02% w/w or 0.007% w/w) at times 0 and 6 hours post-injection. Aqueous humor (AH) and vitreous humor (VH) was collected 24 hours after injection of LPS and assayed for MPO activity by ELISA. Data is a compilation of two separate experiments. Statistical analysis was carried out on GraphPad prism using a multiple comparisons 1-way ANOVA with uncorrected Dunn's test. Results are shown in FIG. 5 (aqueous humor) and FIG. 6 (vitreous humor). In FIG. 5 and FIG. 6, Dex refers to dexamethasone, Compound A refers to (S)-3-amino-2-(4-(hydroxymethyl)phenyl)-N-(isoquinolin-6-yl)propanamide, *refers to p<0.05, and **refers to p<0.005. MPO levels correspond to levels of neutrophil infiltration. In the context of non-infectious inflammatory events, neutrophils cause robust levels of damage to tissues.

Compound | IC50 (TOX) [µM] | other results
C[C@@H]1C[C@H]2[C@@H]3CCC4=CC(=O)C=C[C@]4(C)[C@@]3(F)[C@@H](O)C[C@]2(C)[C@@]1(O)C(=O)COC(=O)C[C@H](N)C(=O)OCc1ccc([C@@H](CN)C(=O)Nc2ccc3cnccc3c2)cc1 [Example 83, 1-(4-((S)-3-amino-1-(isoquinolin-6-ylamino)-1-oxopropan-2-yl)benzyl) 4-(2-((8S,9R,10S,11S,13S,14S,16R,17R)-9-fluoro-11,17-dihydroxy-10,13,16-trimethyl-3-oxo-6,7,8,9,10,11,12,13,14,15,16,17-dodecahydro-3H-cyclopenta[a]phenanthren-17-yl)-2-oxoethyl) L-aspartate trihydrochloride] | 100 | –
CC(C)(C)OC(=O)NC[C@@H](C(=O)Nc1ccc2cnccc2c1)c1ccc(COC(=O)CCC(=O)OCC(=O)[C@@]2(O)CC[C@H]3[C@@H]4CCC5=CC(=O)C=C[C@]5(C)[C@H]4[C@@H](O)C[C@@]32C)cc1 [Example 14] | – | IC50 (TNFα): 0.621 µM
C[C@@H]1C[C@H]2[C@@H]3CCC4=CC(=O)C=C[C@]4(C)[C@@]3(F)[C@@H](O)C[C@]2(C)[C@@]1(O)C(=O)COC(=O)CCC(=O)OCc1ccc([C@@H](CN)C(=O)Nc2ccc3cnccc3c2)cc1 [Example 25] | 100 | –
C[C@@H]1C[C@H]2[C@@H]3CCC4=CC(=O)C=C[C@]4(C)[C@@]3(F)[C@@H](O)C[C@]2(C)[C@@]1(O)C(=O)COC(=O)C1CC1C(=O)OCc1ccc([C@@H](CN)C(=O)Nc2ccc3cnccc3c2)cc1 (some centres unmarked) [Example 27] | 100 | –
CC1(C)O[C@@H]2C[C@H]3[C@@H]4CCC5=CC(=O)C=C[C@]5(C)[C@@]4(F)[C@@H](O)C[C@]3(C)[C@]2(C(=O)COC(=O)CCC(=O)OCc2ccc([C@@H](CN)C(=O)Nc3ccc4cnccc4c3)cc2)O1 [Example 33] | 55.2 | myeloperoxidase activity in aqueous humor (myeloperoxidase activity; FIG. 5): inhibiting effect; myeloperoxidase activity in vitreous humor (myeloperoxidase activity; FIG. 6): inhibiting effect
C[C@@H]1C[C@H]2[C@@H]3CCC4=CC(=O)C=C[C@]4(C)[C@@]3(F)[C@@H](O)C[C@]2(C)[C@@]1(O)C(=O)COC(=O)c1ccc(C(=O)OCc2ccc([C@@H](CN)C(=O)Nc3ccc4cnccc4c3)cc2)cc1 [Example 66, 4-((S)-3-amino-1-(isoquinolin-6-ylamino)-1-oxopropan-2-yl)benzyl (2-((8S,9R,10S,11S,13S,14S,16R,17R)-9-fluoro-11,17-dihydroxy-10,13,16-trimethyl-3-oxo-6,7,8,9,10,11,12,13,14,15,16,17-dodecahydro-3H-cyclopenta[a]phenanthren-17-yl)-2-oxoethyl) terephthalate dihydrochloride] | 100 | –
